Results on three compounds are retold here after article PMC3338619, “Ligand Binding Study of Human PEBP1/RKIP: Interaction with Nucleotides and Raf-1 Peptides Evidenced by NMR and Mass Spectrometry” (PLoS ONE, 2012).

The target in assay [1] is T1, hPEBP1 (Homo sapiens, UniProt P30086).
T1 construct: all residues except Met1, Val3, Asp35, Gln45, Lys47 and Lys187 (total residues: 187;); made in house; host or cells: E. coli BL21 (DE3), pET31b
Briefly: 15N-1H HSQC NMR titration of ligands with hPEBP1 (KD from CSP fitting). It counts as binding. As for the experimental part: The interactions between hPEBP1 100–270 µM and the four selected ligands were investigated by ^15N-^1H heteronuclear single quantum coherence (HSQC) NMR experiments with a sensitivity enhancement and gradient selected coherence. ^1H, ^15N HSQC spectra were recorded at 20 or 30°C on a Bruker 500 MHz or a Varian Inova 600 MHz spectrometer. Two experimental sets of conditions were tested: MES 10 mM pH 6.5 at 20°C, and HEPES 10 mM, NaCl 100 mM pH 7.5 at 30°C.
In the simple case of protein-ligand interactions, the free and the bound states are observed during the titration. The interpretation of an NMR spectrum, such as an HSQC, depends on the rate of exchange between the bound and the free forms. Three different cases can be observed. If the complex rate of dissociation is very slow, two separate resonances are observed at the positions corresponding to the chemical shifts characteristic of the two states (free and bound). During the titration, the intensity of the free resonance decreases while the bound resonance one appears and goes up. This regime corresponds to slow chemical exchange on the NMR time scale. If the complex rate of dissociation is very fast, only a single resonance is observed, whose position is the average of the chemical shifts of the two states, weighted by their relative populations. In this case, Chemical Shift Perturbations (CSP) are observed, i.e. the chemical shift evolves as the ligand concentration increases. This regime corresponds to fast exchange on the NMR time scale, and is typical for weaker affinity complexes. In the intermediate chemical exchange case, in addition to CSP, complex changes will affect the line shape that results in the observation of very broad signals with low intensity.
In the fast exchange regime, CSP can be measured from ^15N-HSQC spectra using the equation: [drawing 1] (1) with δ being the chemical shift in ppm.
A threshold value was estimated in order to determine significant CSP. In a first step, all the CSP are considered and the average (<CSP>) plus two times the standard deviation (σ) is calculated. Then, the highest CSP (CSP≥<CSP>+2σ) are removed from the data and new average and new standard deviation calculated. The operation is repeated until the convergence is reached.
Once the residues involved in the binding were selected, the experimental data were fitted with the quadratic equation 2 using SigmaPlot 9.0 in order to obtain the dissociation constant value (KD): [drawing 2] (2) where [P]0 and [L] are the total protein and ligand concentrations, respectively. A KD value was estimated for each residue involved in the binding, and then an average was calculated.

The next assay concerns rPEBP1. Also noted: method as in PMID 20463977. To be noted: pH 7.4/NaCl 100 mM/30°C, 130 mM GTP for 75 µM rPEBP1; cited from earlier work.
Assay [2] addresses T1, hPEBP1. In words: Native mass spectrometry KD determination (bound protein fraction). Type of assay: binding. To be noted: ammonium bicarbonate 20 mM pH 7.4/37°C, no NaCl; read-out: MS KD. Here is the method:
Non-labeled recombinant hPEBP1 purified as previously described was used for mass spectrometry analysis. To prevent Na^+ adduct formation, the commercial GTP and FMN nucleotides used in native MS were desalted. For this purpose, a protocol derived from the RNA-desalting procedure of Limbach et al. (1995) was set up.
All MS measurements were performed in an ESI-ion trap model Esquire HCT or Ultra HCT PTM Discovery (Bruker, Bremen, Germany), or in a maXis ESI-UHR-Qq-TOF (Bruker). Complexes were formed by incubating hPEBP1 with a range of ligand concentrations in ammonium bicarbonate 20 mM/formic acid buffer, pH 7.4 at 37°C or in ammonium acetate 20 mM, pH 6.6 at 20°C. After incubation, samples were treated with a Zeba micro gel filtration device with a 7 kDa cut-off (Thermo Scientific, Waltham, MA) prior to MS measurement, or analyzed directly in MS. The KD was determined by measuring the bound protein fraction by native MS. Details of the development of the native MS method for KD determination are described in the work of Jaquillard et al. (in press).

Setting [3] is: HEPES 10 mM pH 7.5/NaCl 100 mM/30°C (near physiological conditions).

T1 sequence (P30086 whole entry): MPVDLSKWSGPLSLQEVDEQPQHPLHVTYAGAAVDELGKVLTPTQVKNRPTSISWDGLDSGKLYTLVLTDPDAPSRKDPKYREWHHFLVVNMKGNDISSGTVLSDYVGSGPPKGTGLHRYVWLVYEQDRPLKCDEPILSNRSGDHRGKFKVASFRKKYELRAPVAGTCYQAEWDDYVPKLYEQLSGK

Turning to `Nc1nc2c(ncn2[C@@H]2O[C@H](COP(=O)(O)OP(=O)(O)OP(=O)(O)O)[C@@H](O)[C@H]2O)c(=O)[nH]1` [GTP, Guanosine triphosphate], the Kd on hPEBP1 [1] (setting [3]) came out at 3420 ± 1970 µM; at hPEBP1 [1] (MES 10 mM pH 6.5/20°C), 669 ± 140 µM; on hPEBP1 [2], 89 ± 48 µM. Moreover, in the assay with rPEBP1, the “chemical shift perturbations for rPEBP1” value is “did not cause significant chemical shift perturbations”.

For the compound `Cc1cc2nc3c(=O)[nH]c(=O)nc-3n(C[C@H](O)[C@H](O)[C@H](O)COP(=O)(O)O)c2cc1C` [FMN, flavin mononucleotide], the Kd turned out to be 14 ± 11 µM on hPEBP1 [1] (HEPES 10 mM pH 7.5/20°C, from CSP data of 9 residues in fast exchange); 252 ± 84 µM at hPEBP1 [1] (setting [3]); 14 ± 9 µM at hPEBP1 [1] (MES 10 mM pH 6.5/20°C); 5 ± 4 µM on hPEBP1 [2].

`O=C1N[C@@H](Cc2ccccc2)CO1` [locostatin precursor, (S)-4-benzyl-2-oxazolidinone] gave a Kd on hPEBP1 [1] (setting [3]) of 173 ± 19 µM.

For orientation: Kd means the free concentration of one partner at which half of the binding sites on the other are occupied at equilibrium, for simple one-to-one binding.
